ChEMBL document CHEMBL4346657, “Anticancer activity, dual prooxidant/antioxidant effect and apoptosis induction profile of new bichalcophene-5-carboxamidines” (Eur J Med Chem, 2019)
pIC50: −log10 of the molar value. Active and inactive are the calls of the source. The calls are words filed in the database; no cut-off is given here.

Tests used:
[1] = system: LOX IMVI; experiment: Antiproliferative activity against human LOXIMVI cells assessed as growth inhibition after 48 hrs by sulforhodamine B assay; format: functional
[2] = system: MCF7; experiment: Antiproliferative activity against human MCF7 cells assessed as growth inhibition after 48 hrs by sulforhodamine B assay; format: functional; conditions: MCF7, 48 h
[3] = system: CCRF-CEM; experiment: Antiproliferative activity against human CCRF-CEM cells assessed as growth inhibition after 48 hrs by sulforhodamine B assay; format: functional
[4] = system: KM12; experiment: Antiproliferative activity against human KM12 cells assessed as growth inhibition after 48 hrs by sulforhodamine B assay; format: functional; conditions: KM12, 48 h
[5] = system: SNB-19; experiment: Antiproliferative activity against human SNB19 cells assessed as growth inhibition after 48 hrs by sulforhodamine B assay; format: functional; conditions: SNB-19, 48 h
[6] = system: Erythrocyte; experiment: Haemolytic activity in human erythrocytes assessed as induction of hemolysis at 1.25 mM after 30 mins relative to H202; format: cell-based; conditions: erythrocyte, 0.5 h, 1250 µM
[7] = system: EKVX; experiment: Antiproliferative activity against human EKVX cells assessed as growth inhibition after 48 hrs by sulforhodamine B assay; format: functional
[8] = system: NCI-H322M; experiment: Antiproliferative activity against human NCI-H322M cells assessed as growth inhibition after 48 hrs by sulforhodamine B assay; format: functional
[9] = system: HCT-15; experiment: Antiproliferative activity against human HCT15 cells assessed as growth inhibition after 48 hrs by sulforhodamine B assay; format: functional; conditions: HCT-15, 48 h
[10] = system: SK-MEL-28; experiment: Antiproliferative activity against human SK-MEL-28 cells assessed as growth inhibition after 48 hrs by sulforhodamine B assay; format: functional; conditions: SK-MEL-28, 48 h
[11] = system: DU-145; experiment: Antiproliferative activity against human DU145 cells assessed as growth inhibition after 48 hrs by sulforhodamine B assay; format: functional; conditions: DU-145, 48 h
[12] = Selectivity index, ratio of IC50 for human WI38 cells to GI50 for human NCI60 cells
[13] = system: HCT-116; experiment: Induction of apoptosis in human HCT116 cells assessed as increase in caspase 9 mRNA expression at 100 nM after 6 hrs hrs by SYBR green dye-based qRT-PCR analysis relative to control; format: functional
[14] = system: A549; experiment: Antiproliferative activity against human A549/ATCC cells assessed as growth inhibition after 48 hrs by sulforhodamine B assay; format: functional; conditions: A549, 48 h
[15] = system: UACC-62; experiment: Antiproliferative activity against human UACC62 cells assessed as growth inhibition after 48 hrs by sulforhodamine B assay; format: functional; conditions: UACC-62, 48 h
[16] = Antioxidant activity assessed as hydroxyl radical scavenging activity after 1 hr by salicylic acid-based Fenton reaction assay; format: functional
[17] = system: HCT-116; experiment: Induction of apoptosis in human HCT116 cells assessed as increase in p53 mRNA expression at 100 nM after 6 hrs hrs by SYBR green dye-based qRT-PCR analysis relative to control; format: functional
[18] = system: PC-3; experiment: Antiproliferative activity against human PC3 cells assessed as growth inhibition after 48 hrs by sulforhodamine B assay; format: functional; conditions: PC-3, 48 h
[19] = system: M14; experiment: Antiproliferative activity against human M14 cells assessed as growth inhibition after 48 hrs by sulforhodamine B assay; format: functional; conditions: M14, 48 h
[20] = system: T47D; experiment: Antiproliferative activity against human T47D cells assessed as growth inhibition after 48 hrs by sulforhodamine B assay; format: functional
[21] = system: HL-60(TB); experiment: Antiproliferative activity against human HL-60(TB) cells assessed as growth inhibition after 48 hrs by sulforhodamine B assay; format: functional; conditions: HL-60, 48 h
[22] = system: SK-MEL-5; experiment: Antiproliferative activity against human SK-MEL-5 cells assessed as growth inhibition after 48 hrs by sulforhodamine B assay; format: functional; conditions: SK-MEL-5, 48 h
[23] = system: MDA-MB-435; experiment: Antiproliferative activity against human MDA-MB-435 cells assessed as growth inhibition after 48 hrs by sulforhodamine B assay; format: functional; conditions: MDA-MB-435, 48 h
[24] = system: SR; experiment: Antiproliferative activity against human SR cells assessed as growth inhibition after 48 hrs by sulforhodamine B assay; format: functional
[25] = system: SK-MEL-2; experiment: Antiproliferative activity against human SK-MEL-2 cells assessed as growth inhibition after 48 hrs by sulforhodamine B assay; format: functional; conditions: SK-MEL-2, 48 h
[26] = system: SN12C; experiment: Antiproliferative activity against human SN12C cells assessed as growth inhibition after 48 hrs by sulforhodamine B assay; format: functional
[27] = system: COLO 205; experiment: Antiproliferative activity against human COLO205 cells assessed as growth inhibition after 48 hrs by sulforhodamine B assay; format: functional; conditions: COLO 205, 48 h
[28] = system: OVCAR-5; experiment: Antiproliferative activity against human OVCAR5 cells assessed as growth inhibition after 48 hrs by sulforhodamine B assay; format: functional; conditions: OVCAR-5, 48 h
[29] = system: K562; experiment: Antiproliferative activity against human K562 cells assessed as growth inhibition after 48 hrs by sulforhodamine B assay; format: functional, cell-based; conditions: K562, 48 h; for pIC50: read-out: IC50
[30] = system: Erythrocyte; experiment: (§1) Haemolytic activity in human erythrocytes assessed as induction of hemolysis at 2.5 mM after 30 mins relative to H202; format: cell-based; conditions: erythrocyte, 0.5 h, 2500 µM
[31] = system: SF-539; experiment: Antiproliferative activity against human SF539 cells assessed as growth inhibition after 48 hrs by sulforhodamine B assay; format: functional; conditions: SF-539, 48 h
[32] = system: MDA-MB-468; experiment: Antiproliferative activity against human MDA-MB-468 cells assessed as growth inhibition after 48 hrs by sulforhodamine B assay; format: functional; conditions: MDA-MB-468, 48 h
[33] = system: UO-31; experiment: Antiproliferative activity against human UO31 cells assessed as growth inhibition after 48 hrs by sulforhodamine B assay; format: functional; conditions: UO-31, 48 h
[34] = system: CAKI-1; experiment: Antiproliferative activity against human CAKI-1 cells assessed as growth inhibition after 48 hrs by sulforhodamine B assay; format: functional; conditions: CAKI-1, 48 h
[35] = Antioxidant activity assessed as ABTS radical scavenging activity by spectrophotometric analysis relative to control; format: functional; design: concentration or dose not given beside the values; conditions: dose or concentration not given here
[36] = Pro-oxidant activity assessed as increase in bleomycin-Fe2+ induced calf thymus DNA damage at 2 mM after 1 hr by thiobarbituric acid based absorbance analysis
[37] = as §1; format: cell-based, Erythrocyte; conditions: erythrocytes, read-out: Activity
[38] = system: HOP-92; experiment: Antiproliferative activity against human HOP92 cells assessed as growth inhibition after 48 hrs by sulforhodamine B assay; format: functional; conditions: HOP-92, 48 h

| Compound | GI50 [1] [nM] | GI50 [2] [nM] | GI50 [3] [nM] | GI50 [4] [nM] | GI50 [5] [nM] | Activity [6] | GI50 [7] [nM] | GI50 [8] [nM] | GI50 [9] [nM] | GI50 [10] [nM] | GI50 [11] [nM] | Selectivity Index [12] | fold change (FC) [13] | GI50 [14] [nM] | GI50 [15] [nM] | Activity [16] | fold change (FC) [17] | GI50 [18] [nM] | GI50 [19] [nM] | GI50 [20] [nM] | also measured |
| --- | --- | --- | --- | --- | --- | --- | --- | --- | --- | --- | --- | --- | --- | --- | --- | --- | --- | --- | --- | --- | --- |
| COc1cc(OC)cc(-c2ccc(-c3ccc(C(=N)N)o3)o2)c1 | 1790 | 1800 | 2720 | 2450 | 3020 | Non-Toxic | 5090 | 2860 | 3180 | 1820 | 4280 | 27 | 1.03 | 3780 | 1980 | Active | 0.9 | 4770 | 2070 | 2080 | GI50 [21]: 1900 nM; GI50 [22]: 1950 nM; GI50 [23]: 1520 nM; GI50 [24]: 1880 nM; GI50 [25]: 2440 nM; GI50 [26]: 2380 nM; GI50 [27]: 1840 nM; GI50 [28]: 2340 nM; GI50 [29]: 1980 nM; pIC50 [29]: 5.72; Activity [30]: Non-Toxic; GI50 [31]: 1830 nM; GI50 [32]: 2410 nM; GI50 [33]: 2670 nM; GI50 [34]: 4330 nM; inhibition [35]: 36%; Activity [36]: Active |
| COc1ccc2cc(-c3ccc(-c4ccc(C(=N)N)s4)s3)ccc2c1 | 1950 | 1910 | 1510 | 2060 | 2130 | Non-Toxic | 2140 | 2020 | 1890 | 2500 | 1700 | 26 | 2.51 | 2220 | 2010 | Active | 1.03 | 2130 | 4000 | 1790 | GI50 [21]: 1840 nM; GI50 [22]: 16100 nM; GI50 [23]: 2010 nM; GI50 [24]: 850 nM; GI50 [25]: 2660 nM; GI50 [26]: 2120 nM; GI50 [27]: 2040 nM; GI50 [28]: 2110 nM; pIC50 [29]: 5.93; Activity [30]: Non-Toxic; GI50 [31]: 3910 nM; GI50 [32]: 2340 nM; GI50 [33]: 2880 nM; GI50 [34]: 8290 nM; inhibition [35]: 57.4%; Activity [36]: Active |
| N=C(N)c1ccc(-c2ccc(-c3ccc(Cl)cc3)s2)s1 | 1310 | 1290 | 1840 | 1690 | 1920 | Non-Toxic | 1640 | 1630 | 1200 | 1680 | 1620 | 40 | 2.91 | 2110 | 1800 | Active | 0.89 | 1860 | 1710 | 1550 | GI50 [21]: 1490 nM; GI50 [22]: 3160 nM; GI50 [23]: 1640 nM; GI50 [24]: 320 nM; GI50 [25]: 2380 nM; GI50 [26]: 1910 nM; GI50 [27]: 1440 nM; GI50 [28]: 1580 nM; pIC50 [29]: 6.17; hemolysis at 0.5 h, 2500 µM [37]: 14.3%; GI50 [31]: 1630 nM; GI50 [32]: 1980 nM; GI50 [33]: 1750 nM; GI50 [34]: 1610 nM; inhibition [35]: 81.2%; Activity [36]: Active; GI50 [38]: 1810 nM |
